The experiment addresses T1, human CXCR3 (N-delta 4) (Homo sapiens, UniProt P49682).
T1 construct: CD8 leader (N); Flag tag; expressed in transfected cells; membrane preparation
T1 sequence (P49682 5-368 limits assumed): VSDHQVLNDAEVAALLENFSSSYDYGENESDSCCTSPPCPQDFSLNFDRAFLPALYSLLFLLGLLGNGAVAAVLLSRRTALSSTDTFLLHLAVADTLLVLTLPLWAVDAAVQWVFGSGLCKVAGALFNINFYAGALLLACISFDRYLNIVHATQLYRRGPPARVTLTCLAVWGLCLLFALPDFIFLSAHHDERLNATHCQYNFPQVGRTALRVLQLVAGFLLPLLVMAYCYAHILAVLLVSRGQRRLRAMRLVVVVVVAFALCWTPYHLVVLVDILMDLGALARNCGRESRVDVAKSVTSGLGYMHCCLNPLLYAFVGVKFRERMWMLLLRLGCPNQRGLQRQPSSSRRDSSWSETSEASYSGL
The experiment in a line: Human CXCR3 (N-delta 4) scintillation proximity assay (SPA), [125I] IP-10 binding to Ba/F3-hCXCR3 membranes. The conditions noted are these: IC50 rating; [125I] IP-10 displacement, human CXCR3; read-out: IC50. The source says:
The inventive compounds can readily be evaluated to determine activity at the CXCR3 receptors by known methods, such as, for example, development of a human CXCR3 (N-delta 4) Binding Assay.
The DNA encoding human CXCR3 was cloned by PCR using human genomic DNA (Promega, Madison, Wis.) as a template. The PCR primers were designed based on the published sequence of human orphan receptor GPR9 (1) with incorporated restriction sites, a Kozak consensus sequence, CD8 leader and Flag tag. The PCR product was subcloned into the mammalian expression vector pME18Sneo, a derivative of the SR-alpha expression vector (designated as pME18Sneo-hCXCR3 (N-delta 4).
IL-3-dependent mouse pro-B cells Ba/F3 were transfected by electroporation in 0.4 ml Dulbecco's PBS containing 4×10^6 cells with 20 μg of pME18Sneo-hCXCR3 (N-delta 4) plasmid DNA. Cells were pulsed at 400 Volts, 100 OHMs, 960 μFd. The transfected cells were under selection with 1 mg/ml G418 (Life Technologies, Gaithersburg, Md.). G418-resistant Ba/F3 clones were screened for CXCR3 expression by specific binding of [^125I] IP-10 (NEN Life Science Products, Boston, Mass.).
Ba/F3 cells expressing human CXCR3 (N-delta 4) were pelleted and resuspended in the lysis buffer containing 10 mM HEPES, pH 7.5 and Complete® protease inhibitors (1 tablet per 100 ml) (Boehringer Mannheim, Indianapolis, Ind.) at a cell density of 20×10^6 cells per ml. After 5 minute incubation on ice, cells were transferred to 4639 cell disruption bomb (Parr Instrument, Moline, Ill.) and applied with 1,500 psi of nitrogen for 30 minutes on ice. Large cellular debris was removed by centrifugation at 1,000×g. Cell membrane in the supernatant was sedimented at 100,000×g. The membrane was resuspended in the lysis buffer supplemented with 10% sucrose and stored at −80° C. Total protein concentration of the membrane was determined by BCA method from Pierce (Rockford, Ill.).
Human CXCR3 (N-Delta 4) Scintillation Proximity Assay (SPA):
For each assay point, 2 μg of membrane was preincubated for 1 hr with 300 μg wheat germ agglutinin (WGA) coated SPA beads (Amersham, Arlington Heights, Ill.) in the binding buffer (50 mM HEPES, 1 mM CaCl2, 5 mM MgCl2, 125 mM NaCl, 0.002% NaN3, 1.0% BSA) at room temperature. The beads were spun down, washed once, resuspended in the binding buffer and transferred to a 96-well Isoplate (Wallac, Gaithersburg, Md.). 25 pM of [^125I] IP-10 with tested compounds in a series of titration were added to start the reaction. After 3 hr reaction at room temperature, the amount of [^125I] IP-10 bound to the SPA beads was determined with a Wallac 1450 Microbeta counter.

What is called IC50 is the concentration needed to halve the response being measured. For the compound `CC[C@H]1CN(c2ncc(NC3=NS(=O)(=O)N=C3NC3CC3)cc2Cl)CCN1C1CCN(C(=O)c2ccc(Cl)cc2O)CC1` [Compound 275], the IC50 was greater than 0.1 µM.
For `CC[C@H]1CN(c2ncc(NS(=O)(=O)C3CC3)cc2Cl)CCN1C1CCN(Cc2ccc(Cl)cc2F)CC1` [Compound 22] the value was less than 0.025 µM; for `CC[C@H]1CN(c2ncc(Nc3c(OC)c(=O)c3=O)cc2Cl)CCN1C1CCN(Cc2ccc(Cl)cc2F)CC1` [Compound 106], 0.025 to 0.1 µM.
As for `CC[C@H]1CN(c2ncc(NS(C)(=O)=O)cc2Cl)CCN1C1CCN(Cc2ccc(C(=O)OC)cn2)CC1` [Compound 42], the figure is greater than 0.1 µM.
On to `C[C@H]1CN(c2ncc(NS(C)(=O)=O)cc2Cl)CCN1C1CCN(Cc2ccc(Cl)cc2)CC1` [Compound 32], for which the IC50 lay within 0.025 to 0.1 µM.
As for `CC[C@H]1CN(c2ncc(NS(C)(=O)=O)cc2Cl)CCN1C1CCN([C@@H](C(=O)NC)c2ccc(Cl)cc2)CC1` [Compound 54], the figure is greater than 0.1 µM; as for `C[C@@H]1CN(C2CCN(Cc3ccc(Cl)cc3F)CC2)[C@@H](C)CN1c1ncc([N+](=O)[O-])cc1Cl` [Compound 217], greater than 0.1 µM.
On to `CC[C@H]1CN(c2ncc(Nc3c(NC4CC4)c(=O)c3=O)cc2Cl)CCN1C1CCN(C(=O)c2ccc(Cl)cc2N)CC1` [Compound 111], for which the IC50 is 0.025 to 0.1 µM.
For `C[C@@H]1CN(c2ncc(Nc3c(NCC(F)(F)F)c(=O)c3=O)cc2Cl)[C@@H](C)CN1C1CCN(Cc2cc3ccccc3o2)CC1` [Compound 133] the value was greater than 0.1 µM; for `CC[C@H]1CN(c2ncc(Nc3c(NC4CC4)c(=O)c3=O)cc2Cl)CCN1C1CCN(Cc2ccc(Cl)cc2C(=O)OC)CC1` [Compound 91], less than 0.025 µM; for `Cc1cc(Nc2c(NCC(F)(F)F)c(=O)c2=O)cnc1N1C[C@@H](C)N(C2CCN(C(=O)c3ccc(C#N)cc3)CC2)C[C@@H]1C` [Compound 131], greater than 0.1 µM.
For `CC[C@H]1CN(c2ncc(NS(=O)(=O)NC(=O)OC(C)(C)C)cc2Cl)CCN1C1CCN(Cc2ccc(Cl)cc2F)CC1` [Compound 55] the value was greater than 0.1 µM; for `CC[C@H]1CN(c2ncc(NC3=NS(=O)(=O)N=C3NCC(F)(F)F)cc2Cl)CCN1C1CCN(Cc2ccc(Cl)cc2F)CC1` [Compound 252], less than 0.025 µM; for `C[C@@H]1CN(C2CCN(Cc3ccc(Cl)cc3F)CC2)[C@@H](C)CN1c1ncc(Nc2c(NCC(F)(F)F)c(=O)c2=O)cc1Cl` [Compound 104], 0.025 to 0.1 µM.
For `CC[C@H]1CN(c2ncc(NC3=NS(=O)(=O)N=C3N)cc2Cl)CCN1C1CCN(Cc2ccc(Cl)cc2F)CC1` [Compound 259] the value was 0.025 to 0.1 µM; for `CC(C)C1CCC(N2CCC(N3C[C@H](C)N(c4ncc(Nc5c(NCC(F)(F)F)c(=O)c5=O)cc4Cl)C[C@H]3C)CC2)CC1` (some centres unmarked) [Compound 127], greater than 0.1 µM.
Take `CC[C@H]1CN(c2ncc(Nc3c(NC4CCC4)c(=O)c3=O)cc2Cl)CCN1C1CCN(Cc2ccc(Cl)cc2)CC1` [Compound 78]: the IC50 was less than 0.025 µM.
For `C[C@@H]1CN(c2ncc(Nc3c(NCC(F)(F)F)c(=O)c3=O)cc2Cl)[C@@H](C)CN1C1CCN(Cc2ccco2)CC1` [Compound 142] the value was greater than 0.1 µM.
As to `CC[C@H]1CN(c2ncc(Nc3c(N(C)C)c(=O)c3=O)cc2Cl)CCN1C1CCN(C(CO)c2ccc(Cl)cc2)CC1` (some centres unmarked) [Compound 94], the IC50 was less than 0.025 µM.
`CC(=O)Nc1cnc(N2CCN(C3CCN(Cc4ccc(Cl)cc4)CC3)[C@@H](C)C2)c(Cl)c1` [Compound 181]: the IC50 was less than 0.025 µM.
Take `CCCCNC1=NS(=O)(=O)N=C1Nc1cnc(N2CCN(C3CCN(Cc4ccc(Cl)cc4C(=N)NO)CC3)[C@@H](CC)C2)c(Cl)c1` [Compound 241]: the IC50 is less than 0.025 µM.
With `CC[C@H]1CN(c2ncc(NC3=NS(=O)(=O)N=C3NC3CC3)cc2Cl)CCN1C1CCN(Cc2ccc(Cl)c(F)c2)CC1` [Compound 242], the IC50 is less than 0.025 µM.
As for `CC[C@H]1CN(c2ncc(NC3=NS(=O)(=O)N=C3N3CCC3)cc2Cl)CCN1C1CCN(Cc2ccc(F)c(F)c2)CC1` [Compound 268], the figure is greater than 0.1 µM; as for `C[C@@H]1CN(c2ncc(Nc3c(NCC(F)(F)F)c(=O)c3=O)cc2Cl)[C@@H](C)CN1C1CCN(Cc2ccc(Oc3ccccc3)cc2)CC1` [Compound 161], greater than 0.1 µM.
Regarding `CC[C@H]1CN(c2ncc(NS(C)(=O)=O)cc2Cl)CCN1C1CCN(C(=O)c2ccc(Cl)nc2N)CC1` [Compound 31], the IC50 lay within 0.025 to 0.1 µM.
For the compound `CC[C@H]1CN(c2ncc(NC3=NS(=O)(=O)N=C3Nc3ccccc3O)cc2Cl)CCN1C1CCN(Cc2ccc(Cl)cc2F)CC1` [Compound 277], the IC50 was greater than 0.1 µM.
For `CC[C@H]1CN(c2ncc(Nc3c(N)c(=O)c3=O)cc2Cl)CCN1C1CCN(Cc2ccc(Cl)cc2F)CC1` [Compound 76] the value was less than 0.025 µM; for `CC[C@H]1CN(c2ncc(NS(C)(=O)=O)cc2Cl)CCN1C1CCN(Cc2ccc(Cl)cc2)CC1` [Compound 6], less than 0.025 µM; for `C[C@@H]1CN(C2CCN(Cc3ccc(Cl)cc3)CC2)[C@@H](C)CN1c1ncc(NC(=O)NCC(F)(F)F)cc1Cl` [Compound 197], greater than 0.1 µM.
As for `CCC(C)(C)C1CCC(N2CCC(N3C[C@H](C)N(c4ncc(Nc5c(NCC(F)(F)F)c(=O)c5=O)cc4Cl)C[C@H]3C)CC2)C1` (some centres unmarked) [Compound 144], the IC50 was greater than 0.1 µM.
On to `C[C@H]1CN(c2ncc(NS(C)(=O)=O)cc2Cl)CCN1C1CCN(CCCc2ccc(Cl)cc2)CC1` [Compound 57], for which the IC50 was greater than 0.1 µM.
On to `C[C@H]1CN(c2ncc([N+](=O)[O-])cc2Cl)CCN1C1CCN(Cc2ccc(Cl)cc2F)CC1` [Compound 227], for which the IC50 was greater than 0.1 µM.
As for `CC[C@H]1CN(c2ncc(Nc3c(N(C)C)c(=O)c3=O)cc2Cl)CCN1C1CCN([C@H](C(=O)NC)c2ccc(Cl)cc2)CC1` [Compound 128], the figure is greater than 0.1 µM; as for `CC[C@H]1CN(c2ncc(NS(C)(=O)=O)cc2Cl)CCN1C1CCN(Cc2cc(C)c(C)s2)CC1` [Compound 43], greater than 0.1 µM; as for `CC[C@H]1CN(c2ncc(Nc3c(NC4CC4)c(=O)c3=O)cc2Cl)CCN1C1CCN([C@H](CO)c2ccc(Cl)cc2)CC1` [Compound 71], less than 0.025 µM.
On to `CC[C@H]1CN(c2ncc(Nc3c(NC4CC4)c(=O)c3=O)cc2Cl)CCN1C1CCN([C@H](C(=O)NC)c2ccc(Cl)cc2)CC1` [Compound 149], for which the IC50 is greater than 0.1 µM.
With `Cc1cc(OCc2ccccc2)cc(C)c1C(=O)N1CCC(N2C[C@H](C)N(c3ncc(Nc4c(NCC(F)(F)F)c(=O)c4=O)cc3Cl)C[C@H]2C)CC1` [Compound 140], the IC50 is greater than 0.1 µM.
For `CCNC(=O)Nc1cc(Cl)c(N2CCN(C3CCN(Cc4ccc(Cl)cc4)CC3)[C@@H](CC)C2)c(Cl)c1` [Compound 193] the value was greater than 0.1 µM; for `C[C@@H]1CN(C2CCN(Cc3ccc(Cl)cc3F)CC2)[C@@H](C)CN1c1ncc(Nc2c(NCC(F)(F)F)c(=O)c2=O)cc1Cl` [Compound 92], less than 0.025 µM.
For `CC[C@H]1CN(c2ncc(NC3=NS(=O)(=O)N=C3N(C)C)cc2Cl)CCN1C1CCN(Cc2ccc(F)c(F)c2)CC1` [Compound 272] the value was greater than 0.1 µM; for `CC[C@H]1CN(c2ncc(-n3cccn3)cc2Cl)CCN1C1CCN(Cc2ccc(OC(F)(F)F)cc2)CC1` [Compound 210], 0.025 to 0.1 µM.
As for `CC[C@H]1CN(c2ncc(Nc3c(NC4CC4)c(=O)c3=O)cc2Cl)CCN1C1CCN(Cc2ccc(Cl)cc2C#N)CC1` [Compound 97], the figure is less than 0.025 µM.
Consider `C[C@H]1CN(c2ncc(NS(C)(=O)=O)cc2Cl)CCN1C1CCN(Cc2ccc(C#N)cc2)CC1` [Compound 53], for which the IC50 was greater than 0.1 µM.
Take `CC[C@H]1CN(c2ncc(Nc3c(NC4CC4)c(=O)c3=O)cc2Cl)CCN1C1CCN(Cc2ccc(OC(F)(F)F)cc2)CC1` [Compound 77]: the half-inhibitory concentration (IC50) was less than 0.025 µM.
